Data taken from patent US20220356174A1, “PYRIDIN-2-ONE COMPOUNDS USEFUL AS SMARCA2 ANTAGONISTS” (Epizyme, Inc., priority 2018, published 2022).
Marks after values point to notes of the source that are not given here.

Test system: A549 subcutaneous xenograft
Experiment: Efficacy study in subcutaneous A549 xenograft model (tumor volume, tumor weight, TGI)
Assay type: in vivo, BALB/c nude mice
Details: for Volume-based TGI(%) / Weight-based TGI(%): Day 21, P < 0.001
Procedure: The efficacy of compound 82c was studied in vivo for the treatment of A549 subcutaneous xenograft model in BALB/c nude mice. Seventy-five BALB/c nude female mice were injected cell A549 at 1×10^7 per mouse.
Fifty mice were selected and assigned into five groups using randomized block design based upon their tumor volumes and 10 mice per group. The 5 groups were treated p.o. with vehicle (0.5% NaCMC 0.1% Tween pH4), compound 82c 5 mg/kg BIDx21, 12.5 mg/kg BIDx10/QDx11, 25 mg/kg BIDx7/QDx14 and 50 mg/kg QDx10/3 days off/30 mg/kg QDx8.
All mice from 12.5 mg/kg BID were adjusted from BID to QD from treatment Day 11 until to the end of the study. #36˜#40 mice from group 25 mg/kg BID were compound administration holiday due to mice body weight loss. All mice from group 25 mg/kg BID were adjusted from BID to QD from treatment Day 8. All mice from group 50 mg/kg QD were compound administration holiday from Day 11 to Day 13 due to mice body weight loss and this group was adjusted from 50 mg/kg to 30 mg/kg until the end of the study.
Tumor Inoculation. Each mouse was inoculated subcutaneously at the right flank with A549 tumor cells (1×10^7 cells/mouse) in 0.2 mL of base media (F12K) for tumor development. The treatments were started when the tumor size reached 126.94 mm^3 for the tumor efficacy study (Day 14 post inoculation). Fifty tumor-bearing mice were block randomized into 5 groups with 10 mice in each.
Tumor Measurements and Endpoints. The major endpoint was tumor growth delay or cure. Tumor size was measured twice weekly in two dimensions using a caliper, and the volume was expressed in mm^3 using the formula: V=0.5 a×b^2 where a and b were the long and short diameters of the tumor, respectively. The tumor size was then used for calculations of T/C (%) values. T/C (%) was calculated according to the following equation: T/C (%)=TRTV/CRTV×[…] TRTV=TVtreatment-Dn/TVtreatment-D1, CRTV=TVcontrol-Dn/TVcontrol-D1, T/C (%)<42%, it was considered to be effective. The tumor size was then used for calculations of TGI (%) values. TGI (%) was calculated according to the following equation: TGI (%)=(1−(TVTreatment/Dx−TVTreatment/D1)/(TVControl/Dx−TVControl/D1))×100%, TGI[…]58 means this medicine is effective. The tumor weight was then used for calculations of TGI (%) values. TGI (%) was calculated according to the following equation: TGI (%)=(1−TWTreatment/TWControl)×100%
Statistical Analysis. Summary statistics, including mean and the standard error of the mean (SEM), were provided for the tumor volumes of each group at each time point. Statistical analyses of difference in tumor volumes among the groups were conducted on Day 21 after the last dose. Statistical analysis of difference in tumor volume and tumor weight among the groups was conducted. All data was analyzed using GraphPad Prism software. P<0.05 was considered to be statistically significant. A two-way ANOVA combined with Bonferroni post-test was performed to compare tumor volumes among vehicle and all treatment groups. A one-way ANOVA combined with Dunnett's Multiple Comparison Test to compare tumor weight among vehicle and all treatment groups.

[1] = 50 mg/kg QD×10, 3 days off, 30 mg/kg QD×8, p.o.

SMILES: N#Cc1cc(C(=O)Nc2cc(F)c(=O)n(CC(F)F)c2)sc1C(F)(F)F [Compound 82c, 4-cyano-N-[1-(2,2-difluoroethyl)-5-fluoro-6-oxopyridin-3-yl]-5-(trifluoromethyl)thiophene-2-carboxamide]
- Tumor Volume (mm^3), Day 21 (5 mg/kg BID×21, p.o.): 737.75 ± 78.79 mm^3
- Tumor Weight (g), Day 21 (5 mg/kg BID×21, p.o.): 0.773 ± 0.052 g
- Volume-based TGI(%) (5 mg/kg BID×21, p.o.): 57.01* %
- Weight-based TGI(%) (5 mg/kg BID×21, p.o.): 47.23* %
- Tumor Volume (mm^3), Day 21 (12.5 mg/kg BID×10 QD×11, p.o.): 579.14 ± 59.39 mm^3
- Tumor Weight (g), Day 21 (12.5 mg/kg BID×10 QD×11, p.o.): 0.609 ± 0.063 g
- Volume-based TGI(%) (12.5 mg/kg BID×10 QD×11, p.o.): 68.31* %
- Weight-based TGI(%) (12.5 mg/kg BID×10 QD×11, p.o.): 58.44* %
- Tumor Volume (mm^3), Day 21 (25 mg/kg BID×7 QD×14, p.o.): 469.53 ± 70.97 mm^3
- Tumor Weight (g), Day 21 (25 mg/kg BID×7 QD×14, p.o.): 0.509 ± 0.077 g
- Volume-based TGI(%) (25 mg/kg BID×7 QD×14, p.o.): 75.87* %
- Weight-based TGI(%) (25 mg/kg BID×7 QD×14, p.o.): 65.26* %
- Tumor Volume (mm^3), Day 21 [1]: 461.87 ± 60.61 mm^3
- Tumor Weight (g), Day 21 [1]: 0.496 ± 0.058 g
- Volume-based TGI(%) [1]: 76.56* %
- Weight-based TGI(%) [1]: 66.17* %
